For one data set, the target named is HsCDK2–CYCA (Homo sapiens, UniProt P24941). Nature of the data set: radiometric CDK2 counter-screen. Format: biochemical. As to conditions: HsCDK2–CYCA IC50 [μM], mean of two or more experiments; 1 μM ATP. (A counterscreen serves to expose hits that act by an unwanted route or on another target.)
The target of the next data set is T1, Leishmania CRK3–CYC6 (Leishmania mexicana, UniProt O15851).
T1 sequence (O15851 1-311): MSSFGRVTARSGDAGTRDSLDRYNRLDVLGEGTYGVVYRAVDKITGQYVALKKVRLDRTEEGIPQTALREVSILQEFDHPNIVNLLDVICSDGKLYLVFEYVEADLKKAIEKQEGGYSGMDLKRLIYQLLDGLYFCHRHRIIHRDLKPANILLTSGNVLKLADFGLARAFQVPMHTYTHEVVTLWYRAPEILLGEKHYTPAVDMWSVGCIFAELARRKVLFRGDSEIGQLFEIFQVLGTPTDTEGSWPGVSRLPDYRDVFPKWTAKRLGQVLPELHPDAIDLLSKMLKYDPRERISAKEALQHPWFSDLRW
T1 sequence (Q4Q4U0 1-303 partner): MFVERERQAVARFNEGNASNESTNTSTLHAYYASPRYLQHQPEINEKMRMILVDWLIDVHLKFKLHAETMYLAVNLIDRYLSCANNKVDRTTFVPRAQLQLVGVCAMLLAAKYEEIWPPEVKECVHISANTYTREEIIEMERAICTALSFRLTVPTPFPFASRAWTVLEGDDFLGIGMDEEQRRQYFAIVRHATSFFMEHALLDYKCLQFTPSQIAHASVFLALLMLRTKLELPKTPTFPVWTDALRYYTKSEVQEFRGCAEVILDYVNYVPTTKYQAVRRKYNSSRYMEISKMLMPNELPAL
Briefly: radiometric CRK3 assay. Type of data set: biochemical, L. mexicana CRK3, L. major CYC6.

Data set [1] deals with T2, Leishmania CRK3–CYC6 complex (Leishmania mexicana, UniProt O15851).
T2 sequence (O15851 1-311): T1 sequence (O15851 1-311)
T2 sequence (Q4Q4U0 1-303 partner): T1 sequence (Q4Q4U0 1-303 partner)
Briefly: IMAP-FP primary screen. Format: biochemical, L. mexicana CRK3, L. major CYC6. As to conditions: for inhibition at 30 µM: read-out: CRK3–CYC6 Inhib. [%].

Data set [2] can be described thus: mammalian cell line counter-screen. Format: cell-based. Conditions: human, MRC5 cells.
In data set [3] the test system is panel of 76 human kinases. Briefly: DSTT Dundee kinase panel. Type of data set: biochemical. Conditions: for selectivity against panel of 76 human kinases (in words): 10 μM.
The mark [4] stands for this setting: CRK3–CYC6 IC50 [μM], mean of two or more experiments, 1 μM ATP.

On to `CC1(C)CC(=O)C=C(NC(=O)Nc2ccc(O)cc2)C1` [Compound 60], for which the IC50 – broadly, the midpoint of a concentration-inhibition curve – against HsCDK2–CYCA worked out at 5.9 µM.

`CC(=O)Nc1cc(-c2ccc(Cl)cc2)n[nH]1` [Compound 2, N-(5-(4-Chlorophenyl)-1H-pyrazol-3-yl)acetamide]: the figures for the half-inhibitory concentration (IC50) on Leishmania CRK3–CYC6 (setting [4]) and on HsCDK2–CYCA were 3 µM and 1.6 µM, respectively. In data set [1], the inhibition at 30 µM was 74%.

Turning to `CC1(C)CC(=O)C=C(NC(=O)Nc2ccccc2)C1` [Compound 50], the half-maximal inhibitory concentration (IC50) against Leishmania CRK3–CYC6 (setting [4]) is 0.095 µM; against HsCDK2–CYCA, over 100 µM. In addition, the EC50 (in general, the concentration giving half of the maximal effect) in data set [2] was at least 50 µM.

`COc1ccccc1NC(=O)NC1=CC(=O)CC(C)(C)C1` [Compound 55]: the IC50 against Leishmania CRK3–CYC6 (setting [4]) is 8 µM; on HsCDK2–CYCA, over 100 µM.

Consider `Cc1cccc(-c2ccc3nc(NCC4CCCCC4)nn3c2)c1` [Compound 36], for which the figures for the 50% inhibitory concentration (IC50) at Leishmania CRK3–CYC6 (setting [4]) and at HsCDK2–CYCA were 3 µM and 64 µM, respectively.

In the case of `O=C(Nc1cc(-c2ccc(Cl)cc2)[nH]n1)c1cccnc1` [Compound 10, N-(5-(4-Chlorophenyl)-1H-pyrazol-3-yl)nicotinamide], in data set [1], the inhibition at 30 µM stood at 100%.

For `COc1ccc(NC(=O)NC2=CC(=O)CC(C)(C)C2)cc1` [Compound 57], the IC50 at Leishmania CRK3–CYC6 (setting [4]) was 0.89 µM; against HsCDK2–CYCA it was over 100 µM.

With `CC1(C)CC(=O)C=C(NC(=O)Nc2ccc(OCc3ccccc3)cc2)C1` [Compound 58], the half-inhibitory concentration (IC50) was 0.11 µM on Leishmania CRK3–CYC6 (setting [4]) and over 100 µM against HsCDK2–CYCA. The “selectivity against panel of 76 human kinases (in words)” value (“selectivity against panel” for short) in data set [3] is listed as “highly selective”.

For `O=C(Nc1cc(-c2ccc(Cl)cc2)[nH]n1)C1CCCCC1` [Compound 11, N-[5-(4-Chlorophenyl)-1H-pyrazol-3-yl]cyclohexanecarboxamide], the inhibition at 30 µM in data set [1] came to 100%. Also, the “selectivity against panel” value in data set [3] is given as “highly selective”. For the same molecule, in data set [3] (of 76 kinases), the “number of human kinases with >50 % inhibition at 10 μM” value is “three”.

Regarding `O=C(Nc1cc(-c2ccc(Cl)cc2)[nH]n1)C1CCC1` [Compound 7, N-(5-(4-Chlorophenyl)-1H-pyrazol-3-yl)cyclobutanecarboxamide], the values for the 50% inhibitory concentration (IC50) against Leishmania CRK3–CYC6 (setting [4]) and on HsCDK2–CYCA were 0.9 µM and 1.2 µM, respectively. For the same molecule, in data set [1], the inhibition at 30 µM came out at 99%.

At HsCDK2–CYCA, `COC(=O)c1ccc(NC(=O)NC2=CC(=O)CC(C)(C)C2)cc1` [Compound 59] gave an IC50 of over 100 µM. The “selectivity against panel” value in data set [3] is listed as “highly selective”.

With `COc1cccc(NC(=O)NC2=CC(=O)CC(C)(C)C2)c1` [Compound 56, 1-(5,5-Dimethyl-3-oxocyclohex-1-en-1-yl)-3-(3-methoxyphenyl)urea], the IC50 against Leishmania CRK3–CYC6 (setting [4]) is 0.04 µM; at HsCDK2–CYCA it was over 100 µM.

In the case of `CN[C@@H]1C[C@H]2O[C@@](C)([C@@H]1OC)n1c3ccccc3c3c4c(c5c6ccccc6n2c5c31)C(=O)NC4` [staurosporine, reference compound], the half-maximal inhibitory concentration (IC50) on Leishmania CRK3–CYC6 (potency (IC50) in radiometric Leishmania CRK3 assay) came to 0.0091 µM; in data set [1] it was 29 nM.

As to `O=C1C=C(NC(=O)Nc2ccccc2)CCC1` [Compound 61], the 50% inhibitory concentration (IC50) against Leishmania CRK3–CYC6 (setting [4]) and against HsCDK2–CYCA was over 100 µM in each case.

As for `CC1(C)CC(=O)C=C(NC(=O)NC2CCCCC2)C1` [Compound 54, 1-Cyclohexyl-3-(5,5-dimethyl-3-oxocyclohex-1-en-1-yl)urea], the results for the IC50 at Leishmania CRK3–CYC6 (setting [4]) and against HsCDK2–CYCA were 0.098 µM and over 100 µM, respectively.

Values taken from article PMC3272345 (Chemmedchem, 2011).
